The compounds below were run on pERK1/2(THR202/TYR204) level in AsPC-1 cells (assay: pERK assay (HTRF) in AsPC-1 cell line). Conditions: Homo sapiens, ASPC1, 2 h, 2 h compound treatment.
Assay type: cell-based
Description: AsPC-1 cell line was used in this study. Cells were maintained in RPMI-1640 supplemented with 10% fetal bovine serum (Thermo Fisher), 50 units/mL penicillin and streptomycin (Thermo Fisher) and kept at 37° C. in a humidified atmosphere of 5% CO2 in air. Cells were reinstated from frozen stocks that were laid down within 30 passages from the original cells purchased. 30000 cells per well were seeded into a 96-well plate and incubated overnight. Cells were treated with a 10-point dilution series. The final compound concentration is from 0 to 10 μM. After 2 h compound treatment, cells were lysed, and the pERK1/2(THR202/TYR204) level in the cell lysates was detected by HTRF kit (Cisbio). In brief, a total of 16 μL of cell lysate from each well of a 96-well plate was transferred to a 384-well white assay plate. Lysate from each well was incubated with 2 μL of Eu3+-cryptate (donor) labeled anti-phospho-ERK1/2 and 2 μL of D2 (acceptor) labeled anti-phospho-ERK1/2 antibodies (Cisbio) overnight in dark at room temperature. When donor and acceptor are in close proximity, excitation of the donor with laser triggers a Fluorescence Resonance Energy Transfer (FRET) towards the acceptor, which in turn fluoresces at 655 nm wavelength. FRET signals were measured using a PHERAstar FSX reader (BMG Labtech). IC50 determination was performed by fitting the curve of percent inhibition versus the log of the inhibitor concentration using Dotmatics.

Compound	IC50
N#Cc1c(N)sc2c(F)ccc(-c3c(C(F)(F)F)cc4c(N5CC6CCC(C5)N6)nc(OCC5(F)CCOC5)nc4c3F)c12 (centres unmarked) [Example 25, 4-(4-(3,8-diazabicyclo[3.2.1]octan-3-yl)-8-fluoro-2-((3-fluorotetra hydrofuran-3-yl)methoxy)-6-(trifluoromethyl)quinazolin-7-yl)-2-amino-7-fluoro benzo[b]thiophene-3-carbonitrile]	201 nM
N#Cc1c(N)sc2c(F)ccc(-c3c(C(F)(F)F)cc4c(N5CC6CCC(C5)N6)nc(OCC5(C(F)(F)F)CCOC5)nc4c3F)c12 (centres unmarked) [Example 26, 4-(4-(3,8-diazabicyclo[3.2.1]octan-3-yl)-8-fluoro-6-(trifluoromethyl)-2-((3-(trifluoromethyl)tetrahydrofuran-3-yl)methoxy)quinazolin-7-yl)-2-amino-7-fluorobenzo[b]thiophene-3-carbonitrile]	1460 nM
CC1(O)COCC1COc1nc(N2CC3CCC(C2)N3)c2cc(C(F)(F)F)c(-c3ccc(F)c4sc(N)c(C#N)c34)c(F)c2n1 (centres unmarked) [Example 27, 4-(4-(3,8-diazabicyclo[3.2.1]octan-3-yl)-8-fluoro-2-((4-hydroxy-4-methyltetrahydrofuran-3-yl)methoxy)-6-(trifluoromethyl)quinazolin-7-yl)-2-amino-7-fluorobenzo[b]thiophene-3-carbonitrile]	975 nM
COC1(COc2nc(N3CC4CCC(C3)N4)c3cc(C(F)(F)F)c(-c4ccc(F)c5sc(N)c(C#N)c45)c(F)c3n2)COC1 [Example 28, 4-(4-(3,8-diazabicyclo[3.2.1]octan-3-yl)-8-fluoro-2-((3-methoxyoxetan-3-yl)methoxy)-6-(trifluoromethyl)quinazolin-7-yl)-2-amino-7-fluorobenzo[b]thiophene-3-carbonitrile]	78 nM
CC12CC(COc3nc(N4CC5CCC(C4)N5)c4cc(C(F)(F)F)c(-c5cc(O)cc6ccccc56)c(F)c4n3)(CO1)C2 [Example 29, 4-(4-(3,8-diazabicyclo[3.2.1]octan-3-yl)-8-fluoro-2-((1-methyl-2-oxabicyclo[2.1.1]hexan-4-yl)methoxy)-6-(trifluoromethyl)quinazolin-7-yl)naphthalen-2-ol]	> 10000 nM
N#Cc1c(N)sc2c(F)ccc(-c3c(C(F)(F)F)cc4c(N5CC6CCC(C5)N6)nc(OCC56COC(C#N)(C5)C6)nc4c3F)c12 [Example 30, 4-(((7-(2-amino-3-cyano-7-fluorobenzo[b]thiophen-4-yl)-4-(3,8-diazabicyclo[3.2.1]octan-3-yl)-8-fluoro-6-(trifluoromethyl)quinazolin-2-yl)oxy)methyl)-2-oxabicyclo[2.1.1]hexane-1-carbonitrile]	71 nM
CC1(COc2nc(N3CC4CCC(C3)N4)c3cc(C(F)(F)F)c(-c4ccc(F)c5sc(N)c(C#N)c45)c(F)c3n2)CN(C(=O)C2CC2)C1 [Example 31, 4-(4-(3,8-diazabicyclo[3.2.1]octan-3-yl)-2-((1-(cyclopropanecarbonyl)-3-methylazetidin-3-yl)methoxy)-8-fluoro-6-(trifluoromethyl)quinazolin-7-yl)-2-amino-7-fluorobenzo[b]thiophene-3-carbonitrile]	299 nM
CCC1(COc2nc(N3CC4CCC(C3)N4)c3cc(C(F)(F)F)c(-c4ccc(F)c5sc(N)c(C#N)c45)c(F)c3n2)COC1 [Example 32, 4-(4-(3,8-diazabicyclo[3.2.1]octan-3-yl)-2-((3-ethyloxetan-3-yl)methoxy)-8-fluoro-6-(trifluoromethyl)quinazolin-7-yl)-2-amino-7-fluorobenzo[b]thiophen-3-carbonitrile]	110 nM
N#Cc1c(N)sc2c(F)ccc(-c3c(C(F)(F)F)cc4c(N5CC6CCC(C5)N6)nc(OCC5CC6(COC6)C5)nc4c3F)c12 [Example 33, 4-(2-((2-oxaspiro[3.3]heptan-6-yl)methoxy)-4-(3,8-diazabicyclo [3.2.1]octan-3-yl)-8-fluoro-6-(trifluoromethyl)quinazolin-7-yl)-2-amino-7-fluoro benzo[b]thiophene-3-carbonitrile]	163 nM
CC(F)(F)C1(COc2nc(N3CC4CCC(C3)N4)c3cc(C(F)(F)F)c(-c4ccc(F)c5sc(N)c(C#N)c45)c(F)c3n2)COC1 [Example 34]	81 nM
N#CCC1(COc2nc(N3CC4CCC(C3)N4)c3cc(C(F)(F)F)c(-c4ccc(F)c5sc(N)c(C#N)c45)c(F)c3n2)CCOCC1 [Example 35, 4-(4-(3,8-diazabicyclo[3.2.1]octan-3-yl)-2-((4-(cyanomethyl)tetra hydro-2H-pyran-4-yl)methoxy)-8-fluoro-6-(trifluoromethyl)quinazolin-7-yl)-2-amino-7-fluorobenzo[b]thiophene-3-carbonitrile]	275 nM
CC(=O)N1CC(F)(COc2nc(N3CC4CCC(C3)N4)c3cc(C(F)(F)F)c(-c4ccc(F)c5sc(N)c(C#N)c45)c(F)c3n2)C1 [Example 36, 4-(2-((1-acetyl-3-fluoroazetidin-3-yl)methoxy)-4-(−3,8-diazabicyclo[3.2.1]octan-3-yl)-8-fluoro-6-(trifluoromethyl)quinazolin-7-yl)-2-amino-7-fluorobenzo[b]thiophene-3-carbonitrile]	250 nM
N#CCC1(COc2nc(N3CC4CCC(C3)N4)c3cc(C(F)(F)F)c(-c4ccc(F)c5sc(N)c(C#N)c45)c(F)c3n2)CCOC1 (centres unmarked) [Example 37, 4-(4-(3,8-diazabicyclo[3.2.1]octan-3-yl)-2-((3-(cyanomethyl)tetra hydrofuran-3-yl)methoxy)-8-fluoro-6-(trifluoromethyl)quinazolin-7-yl)-2-amino-7-fluorobenzo[h]thiophene-3-carbonitrile]	119 nM
CC1(COc2nc(N3CC4CCC(C3)N4)c3cc(C(F)(F)F)c(-c4ccc(F)c5sc(N)c(C#N)c45)c(F)c3n2)CN(S(C)(=O)=O)C1 [Example 38, 4-(4-(3,8-diazabicyclo[3.2.1]octan-3-yl)-8-fluoro-2-((3-methyl-1-(methylsulfonyl)azetidin-3-yl)methoxy)-6-(trifluoromethyl)quinazolin-7-yl)-2-amino-7-fluorobenzo[b]thiophene-3-carbonitrile]	180 nM
COC1(COc2nc(N3CC4CCC(C3)N4)c3cc(C(F)(F)F)c(-c4ccc(F)c5sc(N)c(C#N)c45)c(F)c3n2)CN(C(C)=O)C1 [Example 39, 4-(2-((1-acetyl-3-methoxyazetidin-3-yl)methoxy)-4-(3,8-diazabicyclo [3.2.1]octan-3-yl)-8-fluoro-6-(trifluoromethyl)quinazolin-7-yl)-2-amino-7-fluorobenzo[b]thiophene-3-carbonitrile]	495 nM
CC(=O)N1CC2(COc3nc(N4CC5CCC(C4)N5)c4cc(C(F)(F)F)c(-c5ccc(F)c6sc(N)c(C#N)c56)c(F)c4n3)CC1C2 [Example 40, 4-(2-((2-acetyl-2-azabicyclo[2.1.1]hexan-4-yl)methoxy)-4-(3,8-diazabicyclo[3.2.1]octan-3-yl)-8-fluoro-6-(trifluoromethyl)quinazolin-7-yl)-2-amino-7-fluorobenzo[b]thiophene-3-carbonitrile]	236 nM
COCCNC1C[C@H]2CC[C@@H]1N2c1nc(OCC23COC(C2)C3)nc2c(F)c(-c3ccc(F)c4sc(N)c(C#N)c34)c(C(F)(F)F)cc12 (stereo partly drawn) [Example 41, 4-(2-((2-oxabicyclo[2.1.1]hexan-4-yl)methoxy)-8-fluoro-4-((1S,4R)-2-((2-methoxyethyl)amino)-7-azabicyclo[2.2.1]heptan-7-yl)-6-(trifluoromethyl)quinazolin-7-yl)-2-amino-7-fluorobenzo[b]thiophene-3-carbonitrile]	860 nM

Source: patent US20250221996A1, “HETEROCYCLIC COMPOUNDS, COMPOSITIONS THEREOF, AND METHODS OF TREATMENT THEREWITH” (BeiGene, Ltd., priority 2022, published 2025)
